In patent publication US9872495B2, “Peptoid oligomers, pharmaceutical compositions and methods of using the same” (priority 2009, dated 2018):
≈ marks a conversion by molar mass, not a printed value. Like-named read-outs stand apart in the source and are kept apart here. Numbered stars: 1 amine (or outer) side, 2 acyl side, 3 side chain; on linkers, the order of the positions; unused ones are H or OH. Square brackets hold non-standard residues; d marks the D form. Peptide text beside a SMILES is read from it. X1 = O=C(CN(CC(c1ccccc1)c1ccccc1)[*:1])[*:2]; Gly(N-(CH2)6NH2) = NCCCCCCNCC(=O)O; Gly(N(CH2)3NH2) = NCCCNCC(=O)O; NhArg = N=C(N)NCCCCNCC(=O)O; N(iPr)Gly = CC(C)NCC(=O)O; Nphe = O=C(O)CNCc1ccccc1; Orn = NCCC[C@H](N)C(=O)O; Nleu = CC(C)CNCC(=O)O; Nlys = NCCCCNCC(=O)O

What was measured:
Assay type in all cases: cell-based
fresh human erythrocytes = experiment: Hemolytic activity
Method: Typically, toxicity is evaluated by hemolytic concentration50 (HC50), which measures the concentration of antimicrobial agents at which 50% of the erythrocytes in the culture are lysed. Significant hemolysis, as evaluated by HC50, was detectable only for peptide gramicidin S (40 μg/mL). […] In order to test hemolytic activity of peptoid oligomers further, more stringent parameters were used. Instead of HC50, hemolytic concentration10 (HC10) was used to evaluate hemolytic activity of peptoids used in this study. HC10 represents the concentration of antimicrobial agents where 10% of erythrocytes are lysed. HC10 values were detectable for only four peptoid oligomers. […] Antimicrobial activity was tested against the gram-negative strain Escherichia coli ATCC 25922, and […] strains Staphylococcus aureus ATCC 25923, and Bacillus subtilis ATCC 6633, according to the guidelines given in the document […]-A7 of the CLSI (Clinical and Laboratory Standards Institute; Clinical and Laboratory Standards Institute. Methods for Dilution Antimicrobial Susceptibility Tests for Bacteria That Grow Aerobically-Seventh Edition: Approved Standard CLSI document […]-A7. CLSI, Wayne, USA, 2006). This reference is incorporated herein in its entirety. Hemolytic activity was tested against fresh human erythrocytes.

[1] = system: Bacillus subtilis ATCC 6633
Method: (§1) Antimicrobial activity was tested against the gram-negative strain Escherichia coli ATCC 25922, and […] strains Staphylococcus aureus ATCC 25923, and Bacillus subtilis ATCC 6633, according to the guidelines given in the document […]-A7 of the CLSI (Clinical and Laboratory Standards Institute; Clinical and Laboratory Standards Institute. Methods for Dilution Antimicrobial Susceptibility Tests for Bacteria That Grow Aerobically-Seventh Edition: Approved Standard CLSI document […]-A7. CLSI, Wayne, USA, 2006). This reference is incorporated herein in its entirety. Hemolytic activity was tested against fresh human erythrocytes.

[2] = system: Escherichia coli ATCC 25922
Method: as §1

[3] = system: Staphylococcus aureus ATCC 25923
Method: as §1

Compound | HC50 (concentration where 50% hemolysis is observed) (fresh human erythrocytes) | HC10 (concentration where 10% hemolysis is observed) (fresh human erythrocytes; red cells of human) | MIC B. sub ([1]; ATCC 6633) | MIC E. coli ([2]; ATCC 25922) | MIC S. aureus ([3]; ATCC 25923) | HC50 (concentration where 50% hemolysis is observed) (fresh human erythrocytes; red cells of human) | non-hemolytic up to (concentration) (fresh human erythrocytes) | HC10 (concentration where 10% hemolysis is observed) (fresh human erythrocytes; fresh human erythrocytes) | HC50 (concentration where 50% hemolysis is observed) (fresh human erythrocytes; fresh human erythrocytes) | MIC B. sub ([1]; B. subtilis ATCC 6633) | MIC E. coli ([2]; E. coli ATCC 25922) | MIC S. aureus ([3]; S. aureus ATCC 25923)
CC(C)C[C@@H]1NC(=O)[C@H](CCCN)NC(=O)[C@H](C(C)C)NC(=O)[C@@H]2CCCN2C(=O)[C@@H](Cc2ccccc2)NC(=O)[C@H](CC(C)C)NC(=O)[C@H](CCCN)NC(=O)[C@H](C(C)C)NC(=O)[C@@H]2CCCN2C(=O)[C@@H](Cc2ccccc2)NC1=O [Compound 17, Gramicidin S, reference compound] (cyclo(V[Orn]L[dF]PV[Orn]L[dF]P)) | 40 µg/mL | >15.6 µg/mL | 2 µg/mL (≈ 1.75 µM) | 15.6 µg/mL (≈ 13.7 µM) | 15.6 µg/mL (≈ 13.7 µM) | – | – | – | – | – | – | –
N=C(N)NCCCCN1CC(=O)N(Cc2ccccc2)CC(=O)N(CCCCNC(=N)N)CC(=O)N(Cc2ccccc2)CC(=O)N(CCCCNC(=N)N)CC(=O)N(Cc2ccccc2)CC1=O [Compound 18, C(NgbNpm)3] (cyclo([Nphe][NhArg][Nphe][NhArg][Nphe][NhArg])) | – | >250 µg/mL | 125 µg/mL (≈ 131 µM) | 250 µg/mL (≈ 263 µM) | 250 µg/mL (≈ 263 µM) | >250 µg/mL | – | – | – | – | – | –
NCCCCCCN1CC(=O)N(Cc2ccccc2)CC(=O)N(CCCCCCN)CC(=O)N(Cc2ccccc2)CC(=O)N(CCCCCCN)CC(=O)N(Cc2ccccc2)CC1=O [Compound 19, C(NahNpm)3] (cyclo([Nphe][Gly(N-(CH2)6NH2)][Nphe][Gly(N-(CH2)6NH2)][Nphe][Gly(N-(CH2)6NH2)])) | – | >250 µg/mL | 500 µg/mL (≈ 549 µM) | 500 µg/mL (≈ 549 µM) | >500 µg/mL | >250 µg/mL | – | – | – | – | – | –
NCCCN1CC(=O)N(CC(c2ccccc2)c2ccccc2)CC(=O)N(CCCN)CC(=O)N(CC(c2ccccc2)c2ccccc2)CC(=O)N(CCCN)CC(=O)N(CC(c2ccccc2)c2ccccc2)CC1=O [Compound 20, C(NapNdp)3] | – | >31.3 µg/mL | 1 µg/mL (≈ 0.948 µM) | 15.6 µg/mL (≈ 14.8 µM) | 7.8 µg/mL (≈ 7.4 µM) | >250 µg/mL | – | – | – | – | – | –
NCCCN1CC(=O)N(Cc2ccc3ccccc3c2)CC(=O)N(CCCN)CC(=O)N(Cc2ccc3ccccc3c2)CC(=O)N(CCCN)CC(=O)N(Cc2ccc3ccccc3c2)CC1=O [Compound 21, C(NapNnm)3] | – | >250 µg/mL | 0.5 µg/mL (≈ 0.535 µM) | 31.3 µg/mL (≈ 33.5 µM) | 31.3 µg/mL (≈ 33.5 µM) | >250 µg/mL | – | – | – | – | – | –
NCCCN1CC(=O)N(CCCN)CC(=O)N(Cc2ccccc2)CC(=O)N(CCCN)CC(=O)N(Cc2ccccc2)CC(=O)N(CCCN)CC1=O [Compound 22, C(NapNpm)2Nap2] (cyclo([Nphe][Gly(N(CH2)3NH2)][Nphe][Gly(N(CH2)3NH2)][Gly(N(CH2)3NH2)][Gly(N(CH2)3NH2)])) | – | >250 µg/mL | >500 µg/mL | >500 µg/mL | >500 µg/mL | >250 µg/mL | – | – | – | – | – | –
NCCCN1CC(=O)N(Cc2ccccc2)CC(=O)N(CCCN)CC(=O)N(Cc2ccccc2)CC(=O)N(CCCN)CC(=O)N(Cc2ccccc2)CC1=O [Compound 23, C(NapNpm)3] (cyclo([Nphe][Gly(N(CH2)3NH2)][Nphe][Gly(N(CH2)3NH2)][Nphe][Gly(N(CH2)3NH2)])) | – | >250 µg/mL | 500 µg/mL (≈ 638 µM) | >500 µg/mL | 500 µg/mL (≈ 638 µM) | >250 µg/mL | – | – | – | – | – | –
NCCCN1CC(=O)N(Cc2ccccc2)CC(=O)N(CCCN)CC(=O)N(Cc2ccccc2)CC(=O)N(CCCN)CC(=O)N(Cc2ccccc2)CC(=O)N(CCCN)CC(=O)N(Cc2ccccc2)CC1=O [Compound 24, C(NapNpm)4] (cyclo([Nphe][Gly(N(CH2)3NH2)][Nphe][Gly(N(CH2)3NH2)][Nphe][Gly(N(CH2)3NH2)][Nphe][Gly(N(CH2)3NH2)])) | – | >250 µg/mL | 2 µg/mL (≈ 1.91 µM) | 31.3 µg/mL (≈ 29.9 µM) | 31.3 µg/mL (≈ 29.9 µM) | >250 µg/mL | ≥ 250 µg/mL | – | – | – | – | –
NCCCN1CC(=O)N(Cc2ccccc2)CC(=O)N(CCCN)CC(=O)N(Cc2ccccc2)CC(=O)N(CCCN)CC(=O)N(Cc2ccccc2)CC(=O)N(CCCN)CC(=O)N(Cc2ccccc2)CC(=O)N(CCCN)CC(=O)N(Cc2ccccc2)CC1=O [Compound 25, C(NapNpm)5] (cyclo([Nphe][Gly(N(CH2)3NH2)][Nphe][Gly(N(CH2)3NH2)][Nphe][Gly(N(CH2)3NH2)][Nphe][Gly(N(CH2)3NH2)][Nphe][Gly(N(CH2)3NH2)])) | – | >250 µg/mL | 0.5 µg/mL (≈ 0.383 µM) | 7.8 µg/mL (≈ 5.97 µM) | 7.8 µg/mL (≈ 5.97 µM) | >250 µg/mL | ≥ 250 µg/mL | – | – | – | – | –
NCCCN1CC(=O)N(Cc2ccccc2)CC(=O)N(Cc2ccccc2)CC(=O)N(Cc2ccccc2)CC(=O)N(CCCN)CC(=O)N(Cc2ccccc2)CC1=O [Compound 26, C(NpmNap)2Npm2] (cyclo([Nphe][Nphe][Nphe][Gly(N(CH2)3NH2)][Nphe][Gly(N(CH2)3NH2)])) | – | >250 µg/mL | 15.6 µg/mL (≈ 19.1 µM) | 500 µg/mL (≈ 612 µM) | 500 µg/mL (≈ 612 µM) | >250 µg/mL | – | – | – | – | – | –
CC(C)CN1CC(=O)N(Cc2ccccc2)CC(=O)N2CCC[C@H]2C(=O)N(C(C)C)CC(=O)N(CCCN)CC(=O)N(CC(C)C)CC(=O)N(Cc2ccccc2)CC(=O)N2CCC[C@H]2C(=O)N(C(C)C)CC(=O)N(CCCN)CC1=O [Compound 27, C(NipNapNibNpmPro)2] (cyclo([Nleu][Nphe]P[N(iPr)Gly][Gly(N(CH2)3NH2)][Nleu][Nphe]P[N(iPr)Gly][Gly(N(CH2)3NH2)])) | – | – | – | – | – | – | – | >250 µg/mL | >250 µg/mL | >500 µg/mL | >500 µg/mL | >500 µg/mL
CC(C)CN1CC(=O)N(CCCCNC(=N)N)CC(=O)N(C(C)C)CC(=O)N2CCC[C@H]2C(=O)N(CC(c2ccccc2)c2ccccc2)CC(=O)N(CC(C)C)CC(=O)N(CCCCNC(=N)N)CC(=O)N(C(C)C)CC(=O)N2CCC[C@H]2C(=O)N(CC(c2ccccc2)c2ccccc2)CC1=O [Compound 28, C(NdpNibNgbNipPro)2] (cyclo([Nleu][NhArg][N(iPr)Gly]P[X1][Nleu][NhArg][N(iPr)Gly]P[X1])) | – | >250 µg/mL | 62.5 µg/mL (≈ 43.6 µM) | 31.3 µg/mL (≈ 21.8 µM) | 62.5 µg/mL (≈ 43.6 µM) | >250 µg/mL | – | – | – | – | – | –
NCCCCN1CC(=O)N(Cc2ccccc2)CC(=O)N(CCCCN)CC(=O)N(Cc2ccccc2)CC(=O)N(CCCCN)CC(=O)N(Cc2ccccc2)CC1=O [Compound 30, C(NabNpm)3] (cyclo([Nlys][Nphe][Nlys][Nphe][Nlys][Nphe])) | – | >250 µg/mL | 250 µg/mL (≈ 303 µM) | 250 µg/mL (≈ 303 µM) | 500 µg/mL (≈ 605 µM) | >250 µg/mL | – | – | – | – | – | –
N=C(N)NCCCCN1CC(=O)N(CC(c2ccccc2)c2ccccc2)CC(=O)N(CCCCNC(=N)N)CC(=O)N(CC(c2ccccc2)c2ccccc2)CC(=O)N(CCCCNC(=N)N)CC(=O)N(CC(c2ccccc2)c2ccccc2)CC(=O)N(CCCCNC(=N)N)CC(=O)N(CC(c2ccccc2)c2ccccc2)CC(=O)N(CCCCNC(=N)N)CC(=O)N(CC(c2ccccc2)c2ccccc2)CC1=O [Compound 31, C(NgbNdp)5] | – | >62.5 µg/mL | 250 µg/mL (≈ 123 µM) | 250 µg/mL (≈ 123 µM) | 250 µg/mL (≈ 123 µM) | >250 µg/mL | – | – | – | – | – | –
N=C(N)NCCCCN1CC(=O)N(CC(c2ccccc2)c2ccccc2)CC(=O)N(CC(c2ccccc2)c2ccccc2)CC(=O)N(CC(c2ccccc2)c2ccccc2)CC(=O)N(CCCCNC(=N)N)CC(=O)N(CC(c2ccccc2)c2ccccc2)CC1=O [Compound 32, C(NdpNgb)2Ndp2] | – | >250 µg/mL | >500 µg/mL | >500 µg/mL | >500 µg/mL | >250 µg/mL | – | – | – | – | – | –
